Numbering of substitutions follows the chain as printed.
Experiments:
Assay type in all cases: cell-based
GLP-2R Y182^1.43A = target: T1, GLP-2R Y182^1.43A (Homo sapiens, UniProt O95838, Y182A); assay: cAMP accumulation, Y182^1.43A; design: WT (1–553); expressed in transfected cells; HEK 293T (cAMP); conditions: Table S3, Y182A; HEK 293T, 30 min, RT; mean ± SEM, n ≥ 3 in duplicate; read-out: cAMP Emax (% WT)
T1 sequence (O95838 1-553 Y182A): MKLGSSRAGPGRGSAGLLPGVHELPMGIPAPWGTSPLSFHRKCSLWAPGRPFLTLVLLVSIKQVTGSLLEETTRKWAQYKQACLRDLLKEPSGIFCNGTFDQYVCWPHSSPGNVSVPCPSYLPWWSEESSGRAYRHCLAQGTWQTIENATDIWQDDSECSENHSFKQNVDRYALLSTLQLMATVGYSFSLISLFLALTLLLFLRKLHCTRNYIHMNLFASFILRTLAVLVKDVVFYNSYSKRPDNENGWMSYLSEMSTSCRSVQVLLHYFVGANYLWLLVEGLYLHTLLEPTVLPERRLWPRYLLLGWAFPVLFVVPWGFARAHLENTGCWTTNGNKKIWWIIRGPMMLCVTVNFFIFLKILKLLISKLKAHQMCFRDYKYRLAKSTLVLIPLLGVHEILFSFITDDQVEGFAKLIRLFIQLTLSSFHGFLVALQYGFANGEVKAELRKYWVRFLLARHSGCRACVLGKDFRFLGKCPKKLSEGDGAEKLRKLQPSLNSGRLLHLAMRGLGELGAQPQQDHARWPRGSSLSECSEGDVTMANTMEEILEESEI
Method: (§1) HEK 293T cells were cultured in Dulbecco’s Modified Eagle’s Medium (DMEM) (Gibco, Waltham, USA) supplemented with 10% (v/v) fetal bovine serum (FBS) (Gibco) and 1% (v/v) sodium pyruvate (Gibco) at 37 °C, 5% CO2 in a humidified incubator. They were seeded onto 6-well cell culture plates and transiently transfected with different GLP-2R constructs using Lipofectamine 2000 transfection reagent (Invitrogen, Carlsbad, CA, USA). After 24 h, the transfected cells were seeded onto 384-well microtiter plates (3000 cells per well) in HBSS supplemented with 5 mM HEPES, 0.1% (w/v) bovine serum albumin (BSA) and 0.5 mM 3-isobutyl-1- methylxanthine, and stimulated with increasing concentrations of GLP-2 for 30 min at RT. Eu and Ulight were diluted by cAMP detection buffer and added to the plates separately to terminate the reaction. Plates were incubated at RT for 60 min before measuring the fluorescence intensity at 620 nm and […] by an EnVision multilabel plate reader (PerkinElmer, Boston, USA).

GLP-2R H268^3.37A = target: T2, GLP-2R H268^3.37A (Homo sapiens, UniProt O95838, H268A); assay: cAMP accumulation, H268^3.37A; design: WT (1–553); expressed in transfected cells; HEK 293T (cAMP); conditions: Table S3, H268A; HEK 293T, 30 min, RT; mean ± SEM, n ≥ 3 in duplicate; read-out: cAMP Emax (% WT)
T2 sequence (O95838 1-553 H268A): T1 sequence (O95838 1-553 Y182A) with A182Y, H268A
Method: as §1

GLP-2R K414^7.35A = target: T3, GLP-2R K414^7.35A (Homo sapiens, UniProt O95838, K414A); assay: cAMP accumulation, K414^7.35A; design: GLP-2R (1-553) (WT); expressed in transfected cells; host or cells: HEK 293T; conditions: Table S3, K414A; HEK 293T, 30 min, RT; mean ± SEM, n ≥ 3 in duplicate; read-out: cAMP Emax (% WT)
T3 sequence (O95838 1-553 K414A): T1 sequence (O95838 1-553 Y182A) with A182Y, K414A
Method: as §1

With `CC[C@H](C)[C@H](NC(=O)[C@H](Cc1ccccc1)NC(=O)[C@H](CC(=O)O)NC(=O)[C@H](CCCNC(=N)N)NC(=O)[C@H](C)NC(=O)[C@H](C)NC(=O)[C@H](CC(C)C)NC(=O)[C@H](CC(N)=O)NC(=O)[C@H](CC(=O)O)NC(=O)[C@H](CC(C)C)NC(=O)[C@@H](NC(=O)[C@@H](NC(=O)[C@H](CC(N)=O)NC(=O)[C@H](CCSC)NC(=O)[C@H](CCC(=O)O)NC(=O)[C@H](CC(=O)O)NC(=O)[C@H](CO)NC(=O)[C@H](Cc1ccccc1)NC(=O)[C@H](CO)NC(=O)CNC(=O)[C@H](CC(=O)O)NC(=O)[C@H](C)NC(=O)[C@@H](N)Cc1c[nH]cn1)[C@@H](C)O)[C@@H](C)CC)C(=O)N[C@@H](CC(N)=O)C(=O)N[C@@H](Cc1c[nH]c2ccccc12)C(=O)N[C@@H](CC(C)C)C(=O)N[C@H](C(=O)N[C@@H](CCC(N)=O)C(=O)N[C@H](C(=O)N[C@@H](CCCCN)C(=O)N[C@H](C(=O)N[C@H](C(=O)N[C@@H](CC(=O)O)C(=O)O)[C@@H](C)O)[C@@H](C)CC)[C@@H](C)O)[C@@H](C)CC` [Human GLP-2 (1–33)] the Emax (GLP-2R Y182^1.43A) was 102 ± 3.9%, the Emax (GLP-2R H268^3.37A) was 118 ± 22.6% and the Emax (GLP-2R K414^7.35A) was 110 ± 3.3%.

— publication PMC7785020, “A unique hormonal recognition feature of the human glucagon-like peptide-2 receptor” (Cell Research, 2020)
